Assays:
[1] = Highest frequency of moderate liver toxicity observed during clinical trials, expressed as a percentage. [column '% BIOL' in source]; settings: human
[2] = Highest frequency of acute liver toxicity observed during clinical trials, expressed as a percentage. [column '% AIGUE' in source]; settings: human
[3] = Presence of at least one case with successful reintroduction. [column 'REINT' in source]; settings: human
[4] = Comments (NB not yet translated). [column 'COMMENTAIRES' in source]; settings: human
[5] = Times to onset, minimal and maximal, observed in the indexed observations. [column 'DELAI' in source]; settings: human
[6] = Proposed mechanism(s) of liver damage. [column 'MEC' in source]; settings: human
[7] = human, serum
[8] = human, serum; remark: listed apart in the source
[9] = human
[10] = human; remark: listed apart in the source
[11] = human; remark: listed apart in the source
[12] = human, serum, 4383 h
[13] = human; remark: listed apart in the source
[14] = human; remark: listed apart in the source
[15] = human; remark: listed apart in the source
[16] = human; remark: listed apart in the source
[17] = human; remark: listed apart in the source
[18] = human; remark: listed apart in the source
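Throughout, for Hepatotoxicity (association with vascular disease): count of indexed literature references reporting vascular liver injury in humans, e.g. peliosis hepatitis, hepatic veno-occlusive disease or Budd-Chiari syndrome.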
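Throughout, for Hepatotoxicity (benign tumour): value is a count of indexed literature references citing a benign tumour confirmed by histopathology.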
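Throughout, for Hepatotoxicity (choleostasis): human cholestatic liver injury, shown by histopathology or by peak ALT or AST elevation over alkaline phosphatase ratio below 2, value counts indexed literature reports.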
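Throughout, for Hepatotoxicity (chronic liver disease): chronic liver injury confirmed by histopathology or persistently raised serum aminotransferase activity beyond 6 months, value given as the count of indexed literature references.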
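Throughout, for Hepatotoxicity (cirrhosis): value is a count of indexed literature references reporting cirrhosis confirmed by histopathology.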
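Throughout, for Hepatotoxicity (cytolytic): human cytolytic liver injury, shown by histopathology or by a ratio above 5 of peak ALT or AST elevation to alkaline phosphatase elevation, value counts indexed references.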
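Throughout, for Hepatotoxicity (granulomatous hepatitis): value is a count of indexed literature references reporting granulomatous liver disease confirmed by histopathology.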
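Throughout, for Hepatotoxicity (malignant tumour): malignant tumour confirmed by histopathology, value gives the count of indexed literature references reporting it.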
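Throughout, for Hepatotoxicity (severe hepatitis): human clinical data: severe hepatitis, meaning potentially life-threatening liver failure or clinically observed cases, the value counts how many indexed literature references report it.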
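Throughout, for Hepatotoxicity (steatosis): steatosis confirmed by histopathology, value is the count of indexed references.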

| SMILES | Hepatotoxicity (moderate) [1] | Hepatotoxicity (acute) [2] | Hepatotoxicity (successful reintroduction) [3] | Hepatotoxicity (comment) [4] | Hepatotoxicity (time to onset) [5] | Hepatotoxicity (mechanism) [6] | Hepatotoxicity (moderate) [7] | Hepatotoxicity (acute) [8] | Hepatotoxicity (cytolytic) [9] | Hepatotoxicity (choleostasis) [10] | Hepatotoxicity (severe hepatitis) [11] | Hepatotoxicity (chronic liver disease) [12] | Hepatotoxicity (cirrhosis) [13] | Hepatotoxicity (granulomatous hepatitis) [14] | Hepatotoxicity (association with vascular disease) [15] | Hepatotoxicity (steatosis) [16] | Hepatotoxicity (malignant tumour) [17] | Hepatotoxicity (benign tumour) [18] | further results |
| --- | --- | --- | --- | --- | --- | --- | --- | --- | --- | --- | --- | --- | --- | --- | --- | --- | --- | --- | --- |
| C#C[C@]1(O)CC[C@H]2[C@@H]3CCC4=Cc5oncc5C[C@]4(C)[C@H]3CC[C@@]21C [DANAZOL] | 42.1% | 9.4% | yes | HNF | 3 days - 20 years | Dose-dependant | 32 | 13 | 6 | 8 | 2 | 0 | 0 | 0 | 2 | 0 | 5 | 12 | – |
| Nc1ccc(S(=O)(=O)c2ccc(N)cc2)cc1 [DAPSONE] | – | – | yes | DUCTOPENIE | 1 week - 1.5 years | – | 10 | 33 | – | – | – | 0 | 0 | – | 0 | 0 | 0 | 0 | Hepatotoxicity (moderate) ([1]; Liver): 20%; Hepatotoxicity (acute) ([2]; Liver): 5%; Hepatotoxicity (mechanism) ([6]; Liver): Allergic, Dose-dependant; Hepatotoxicity (cytolytic) ([9]; Liver): 15; Hepatotoxicity (choleostasis) ([10]; Liver): 13; Hepatotoxicity (severe hepatitis) ([11]; Liver): 6; Hepatotoxicity (granulomatous hepatitis) ([14]; Liver): 3 |
| CN1C(=O)CN=C(c2ccccc2)c2cc(Cl)ccc21 [DIAZEPAM] | 7.1% | 0% | yes | AC_ANTI-N/-M #CBP | 2 days - 9 years | Allergic | 1 | 12 | 3 | 9 | 1 | 0 | 0 | 1 | 0 | 0 | 0 | 0 | – |
| O=c1[nH]cnc2c1ncn2[C@H]1CC[C@@H](CO)O1 [DIDANOSINE] | 38.1% | 12.5% | yes | REACTIVATION_HVB/HVC I/PARACETAMOL | 5 days - 8 years | Dose-dependant, Mitochondrial toxicity | 18 | 27 | 21 | 6 | 13 | 1 | 1 | 0 | 0 | 20 | 0 | 0 | – |
| CCCCOCC(CN1C(=O)N(CC(COCCCC)OC(N)=O)C(=O)C(CC)(c2ccccc2)C1=O)OC(N)=O (stereo not given) [DIFEBARBAMATE] | 0% | 0% | yes | AC_ANTI-N/-ML I/PAROXETINE | 8 days - 15 months | Allergic | 2 | 9 | 9 | 1 | 5 | 0 | 0 | 1 | 0 | 1 | 0 | 0 | – |
